From patent publication US20250074981A1, “COMBINATION THERAPY WITH DEXAMETHASONE AND TUMOR-SPECIFIC T CELL ENGAGING MULTI-SPECIFIC ANTIBODIES FOR TREATING CANCER” (MEMORIAL SLOAN-KETTERING CANCER CENTER, priority 2021, published 2025)
Read-outs that look alike come from different tables or passages of the source.

Assays:
GD2(+) osteosarcoma PDX = assay: Bioluminescence imaging of Luc(+) GD2-EATs in GD2(+) osteosarcoma PDX; format: in vivo, mice; details: GD2-EATs plus HD dexamethasone
Protocol: (§1) T cells isolated from peripheral blood were stimulated with Dynabeads™ Human T-Activator CD3/CD28 for 24 hours. T cells were transduced with retroviral constructs containing tdTomato and click beetle red luciferase in RetroNectin-coated 6-well plates in the presence of IL-2 (100 IU/ml) and protamine sulfate ([…]). Transduced T cells were cultured for 8 days before being used in animal experiments.
(§2) Mice were anesthetized and imaged after intravenous injection of 3 mg of D-luciferin (Gold Biotechnology, St. Louis, MO) on different days post T cell injection. Images were acquired using IVIS Spectrum CT In Vivo Imaging System (Caliper Life Sciences, Waltham, MA). Bioluminescence images were overlaid with photographs, and regions of interest (ROI) were drawn based on the location and contour of tumor using Living image 2.60 (Xenogen, Alameda, CA). The total counts of photons (photon/s) were obtained. Bioluminescence signals (total flux, photon/s) before T cell injection were used as baselines.

M37 breast cancer PDX = assay: In vivo anti-tumor effect in M37 breast cancer PDX; set-up: species or system mice; details: low and intermediate dosage of dexamethasone; due to diarrhea from C. difficile infection
Protocol: Increasing dosage of dexamethasone was tested as a premedication administered i.p. before the i.v. injection of HER2×CD3-BsAb plus activated human T cells in mice xenografted s.c. with M37 breast cancer PDX using the schedule detailed in FIG. 9A. The three dosages of intraperitoneal dexamethasone were 2 mg/kg (Dex 2), 8 mg/kg (Dex 8) and 32 mg/kg (Dex 32) once a week×3 weeks.

neuroblastoma PDXs = assay: Flow cytometry of tumor infiltrating myeloid cells and lymphocytes in neuroblastoma PDXs; format: in vivo, mice; details: day 10 post-treatment
Description: (§3) For blood and tumor samples from mice, the following antibodies were purchased from Biolegend: anti-human CD45-APC (HI30), anti-human CD3-Percp/Cy5.5 (SK7), anti-human CD8-FITC, anti-human CD4-PE/Cy7, anti-mouse CD45-APC, anti-mouse CD45-Brilliant Violet 711™ (30-F11), anti-mouse CD11b-Brilliant Violet 570™ (M1/70), anti-mouse Ly6G-FITC, anti-mouse Ly6C-PerCP/Cy5.5, and anti-mouse F4/80-PE/Cy7. Statistical analysis
(§4) Flow cytometry analysis. For flow cytometry analyses of blood and tumor samples from mice, the following antibodies were purchased from Biolegend: anti-human CD45-APC (HI30), anti-human CD3-Percp/Cy5.5 (SK7), anti-human CD8-FITC, anti-human CD4-PE/Cy7, anti-mouse CD45-Brilliant Violet 711™ (30-F11), anti-mouse CD11b-Brilliant Violet 570™ (M1/70), anti-mouse Ly6G-FITC, anti-mouse Ly6C-PerCP/Cy5.5, and anti-mouse F4/80-PE.

tumor microvasculature = assay: IHC of intratumoral blood vessels (mCD31) and HIF-1α in neuroblastoma PDXs; format: in vivo, mice
Protocol: (§5) Immunohistochemistry and immunofluorescence staining. Immunohistochemistry (TIC) staining were performed at the MSK Molecular Cytology Core Facility using Discovery XT processor (Ventana Medical Systems). Tumor samples were fixed and embedded in paraffin. Anti-human CD45, anti-human CD3, anti-human CD4, anti-human CD8, anti-mouse CD31 antibodies were used, which was followed by biotinylated secondary antibody. The detection was performed using a DAB detection kit (Ventana Medical Systems) or Alexa Fluor™ 488 or 568 Tyramide Reagent (Invitrogen). IHC images were captured from tumor sections using a Nikon ECLIPSE Ni-U microscope and NIS-Elements 4.0 imaging software. Antigen positive cells were counted with Qupath 0.1.2 or using positive pixel count analysis.
Positive Pixel Count Analysis. IHC slides were scanned (Aperio ScanScope XT) and analyzed by comparing positive pixel counts (Aperio Technologies). For analyzing tumor infiltrating lymphocytes, the largest area of intact tumor tissue was included, and oblique sections were avoided. […] After positive pixel count analysis was run, analyzed slides were examined to confirm that positively identified pixels were consistent with lymphocyte staining and not background staining. Percentages were calculated as the total number of positive pixels divided by the total number of pixels (% positive pixels/total pixels).

[1] = system: osteosarcoma cell line 143B xenografts; assay: In vivo anti-tumor effect against osteosarcoma cell line 143B xenografts
Protocol: All animal procedures were performed in compliance with Memorial Sloan Kettering Cancer Center's institutional Animal Care and Use Committee (IACUC) guidelines. BALB/c Rag2^−/−IL-2Rγc^−/− (BRG) mice were used in this study. Target antigen (+) patient-derived xenograft (PDX) was established from fresh surgical specimens with MSKCC IRB approval. Tumor cells in Matrigel (Corning Corp, Corning, NY) were implanted subcutaneously on the right flank of each mouse. Tumor size was measured using handheld Peira TM900 imaging device (Piera, Brussels, BE). Tumor growth curves and overall survival was analyzed, and the overall survival was defined as the time from start of treatment to when tumor volume reached 2000 mm^3. To define the well-being of mice, CBC analyses, changes in body weight, behavior and physical appearance were monitored. All animal experiments were repeated twice more with different donor's T cells to ensure that the results were reliable.
In vivo anti-tumor effect was compared by area under curve (AUC) and survival curves, which were calculated. Differences between samples indicated in the figures were tested for statistical significance by two-tailed Student's t-test for two sets of data while one-way ANOVA with Tukey's post hoc test was used to among three or more sets of data. […]
Therapeutic study with mouse xenograft model All animal procedures were performed in compliance with Memorial Sloan Kettering Cancer Center's institutional Animal Care and Use Committee (IACUC) guidelines. […] Treatment was initiated after tumors were established, average tumor volume of 100 mm^3 when measured using TM900 scanner (Piera, Brussels, BE). […] Tumor growth curves and overall survival were analyzed, and the overall survival was defined as the time from start of treatment to when tumor volume reached 2000 mm^3. To define the well-being of mice, CBC analyses, changes in body weight, behavior and physical appearance were monitored. […]
Statistical analysis. […] Area under curves (AUCs) of tumor growth were calculated and compared among groups. […]

[2] = system: osteosarcoma cell line 143B xenografts; format: in vivo, mice; details: day 60 post-treatment, agents added to GD2-EATs, vs GD2-EATs alone
Description: as §3, §4

[3] = system: neuroblastoma patient-derived xenografts; assay: IHC positive pixel count analysis of CD3, CD4, CD8 T cells in neuroblastoma PDXs; format: in vivo, mice; details: day 10 post-treatment; added to GD2-EATs
Protocol: as §5
Positive Pixel Count Analysis. IHC slides were scanned (Aperio ScanScope XT) and analyzed by comparing positive pixel counts (Aperio Technologies). For analyzing tumor infiltrating lymphocytes, the largest area of intact tumor tissue was included, and oblique sections were avoided. Each slide was visually inspected to ensure specificity and sensitivity of antibody staining. After positive pixel count analysis was run, analyzed slides were examined to confirm that positively identified pixels were consistent with lymphocyte staining and not background staining. Percentages were calculated as the total number of positive pixels divided by the total number of pixels (% positive pixels/total pixels).

GD2(+) neuroblastoma PDX = assay: Bioluminescence imaging of Luc(+) GD2-EATs in GD2(+) neuroblastoma PDX; format: in vivo, mice
Protocol: (§6) T cell transduction. T cells isolated from peripheral blood were stimulated with Dynabeads™ Human T-Activator CD3/CD28 for 24 hours. T cells were transduced with retroviral constructs containing tdTomato and click beetle red luciferase in RetroNectin-coated 6-well plates in the presence of IL-2 (100 IU/ml) and protamine sulfate (4 μg/mL). Transduced T cells were cultured for 8 days before being used in animal experiments.
as §2, with “Bioluminescence imaging. Mice” for “Mice”, “Biotechnology)” for “Biotechnology, St. Louis, MO)”, “vivo” for “Vivo”, “Sciences).” for “Sciences, Waltham, MA).”, “(Xenogen).” for “(Xenogen, Alameda, CA).”

hVEGF = assay: Serum VEGF levels by Quantikine ELISA, HGSOC1 ovarian cancer PDX mice; format: in vivo, human; details: day 5 post-treatment, 48 hours after 2nd dose; with HER2-EATs
Protocol: Concentration of VEGF serum levels were measured using a commercially available enzyme-linked immunosorbent assay (ELISA) kit (R&D Systems, Minneapolis, MN) according to the manufacturer's instruction. Briefly, serum samples and standards were incubated for 2 hours in a microplate pre-coated with human or murine anti-VEGF monoclonal antibodies. After washing three times, enzyme-linked anti-VEGF polyclonal antibodies were added. Unbound antibodies were removed by washing. […] All samples were run in triplicate, and a standard curve was established for each assay. The sensitivity of the assay was <9.0 pg/ml. Inter- and intra-assay variations were <10%.
Measurement of serum VEGF levels. Serum VEGF levels in murine plasma were measured using Quantikine enzyme-linked immunosorbent assay (ELISA) kit (R and D Systems Cat #DVE00, RRID:AB_2800364) according to the manufacturer's instruction. […] All samples were run in triplicate, and a standard curve was established for each assay.

[4] = system: osteosarcoma cell line 143B xenografts; format: in vivo, mice; details: agents added to GD2-EATs, vs GD2-EATs alone
Protocol: Immunohistochemistry (IHC) and immunofluorescence (IF) staining were performed at the MSK Molecular Cytology Core Facility using Discovery XT processor (Ventana Medical Systems, Oro Valley, AZ) as described by Xu H, et al., Cancer Immunol Res 3: 266-277 (2015), the entirety of which is incorporated herein by reference. Tumor samples were fixed and embedded in paraffin. Anti-human CD45, anti-human CD3, and anti-mouse CD68 antibodies were used, which was followed by biotinylated secondary antibody. The detection was performed using a DAB detection kit (Ventana Medical Systems, Oro Valley, AZ) or Alexa Fluor™ 488 or 568 Tyramide Reagent (Invitrogen, Carlsbad, CA). IHC images were captured from tumor sections using a Nikon ECLIPSE Ni-U microscope and NIS-Elements 4.0 imaging software. IF images were captured using Leica Inverted Confocal SP8 and processed with Imaris (Bitplane, Zurich, Switzerland). Antigen positive cells were counted with Qupath 0.1.2.
Immunohistochemistry and immunofluorescence staining. Immunohistochemistry (TIC) staining were performed at the MSK Molecular Cytology Core Facility using Discovery XT processor (Ventana Medical Systems). Tumor samples were fixed and embedded in paraffin. […] Antigen positive cells were counted with Qupath 0.1.2 or using positive pixel count analysis.

[5] = system: TH1 cell cytokines (IL-2, IFN-γ, and TNF-α); assay: TH1 cell cytokine levels after GD2-EATs with VEGF blockades, neuroblastoma PDX mice; format: in vivo; details: 2 hours after the first dose of GD2-EATs; combination group
Protocol: Cytokine release assays. EAT-induced human cytokine release was analyzed in vitro and in vivo. Human Th1 cell released cytokines were analyzed by LEGENDplex™ Human Th1 Panel (Biolegend, Cat #741035). Five T cell cytokines including IL-2, IL-6, IL-10, IFN-γ and TNF-α were analyzed using mouse serum after treatment with EATs with or without VEGF blockade.

[6] = system: red blood cell, leukocyte, or platelet counts; assay: Complete blood count after GD2-EATs with VEGF blockades, neuroblastoma PDX mice; format: in vivo; details: GD2-EATs following bevacizumab or DC101
Protocol: To test if VEGF blockades affected complete blood cell counts (CBC) or frequencies of tumor infiltrating myeloid cells (TIMs), CBC and flow cytometry analysis of tumors were done after the first and third doses of GD2-EATs following bevacizumab or DC101. […] The effect on TIMs was also analyzed using flow cytometry of tumors. […] TIM analysis in a second tumor model was repeated using 143B CDXs where blood and tumors were analyzed on day 5 and day 60 post treatment, respectively.

[7] = system: HER2(+) osteosarcoma PDXs, HGSOS; assay: Bioluminescence imaging of Luc(+) HER2-EATs in HER2(+) osteosarcoma PDX (HGSOS / HGSOC1); format: in vivo, mice; details: control HER2-EATs
Protocol: as §1, §2
as §6, with “Transduced T cells were cultured for 8 days before being used in animal experiments.” left out

[8] = agent added to GD2-EATs, compared to GD2-EATs alone

C[C@@H]1C[C@H]2[C@@H]3CCC4=CC(=O)C=C[C@]4(C)[C@@]3(F)[C@@H](O)C[C@]2(C)[C@@]1(O)C(=O)CO [dexamethasone]
mean signal intensity on day 5 vs GD2-EATs alone (GD2(+) osteosarcoma PDX): more than 10 times
weight loss (M37 breast cancer PDX): suffered weight loss around day 30 post treatment

bevacizumab: anti-human VEGF (hVEGF) antibody bevacizumab
frequencies of intratumoral hCD45(+) T cells (neuroblastoma PDXs): much more pronounced
high endothelial venules (HEVs) in tumors (tumor microvasculature; combined with GD2-EATs): induced high endothelial venules (HEVs) in tumors
mCD31(+) blood vessels (tumor microvasculature; day 10 post-treatment): significant increase in mCD31(+) blood vessels
anti-tumor effect ([1]; VEGF blockade with unarmed T cells): did not show any anti-tumor effect
survival [1, 8]: prolonging mouse survival
tumor control / anti-tumor response [1, 8]: significantly improved
tumor infiltrating hCD45(+) and CD8(+) T cells (TILs) [2]: significantly increased
tumor infiltrating hCD45(+) and CD8(+) T cells (TILs) ([2]; listed as anti-VEGF): increased frequencies of tumor infiltrating hCD45(+) T cells and CD8(+) T cells
CD4(+) TIL increase compared to GD2-EATs alone [3]: 1.1 fold
CD8(+) TIL increase compared to GD2-EATs alone [3]: 5 fold
increase of CD3(+) TILs compared to GD2-EATs alone [3]: 3 fold
TIL persistence (GD2(+) neuroblastoma PDX; added to GD2-EATs): significantly prolonging TIL persistence
Fold increase in BLI (AUC-BLI) (GD2(+) neuroblastoma PDX; neuroblastoma PDX, control GD2-EATs): 2.8
serum h-VEGF levels (hVEGF): significantly reduced serum h-VEGF levels
CD3+ T cell infiltration / count in tumors (IHC) [4]: significantly increased
CD3+ T cell infiltration / count in tumors (IHC) ([4]; listed as anti-VEGF): significantly increased T cell count
TH1 cell cytokines (IL-2, IFN-γ, and TNF-α) [5]: significantly lower
red blood cell, leukocyte, or platelet counts [6]: no significant changes
Fold increase in BLI (AUC-BLI) [7]: 7.5
